Test results: patent US12662473B2, “Inhibitors for programmed cell necrosis and preparation method therefor and use thereof” (SHANGHAI INSTITUTE OF ORGANIC CHEMISTRY, CHINESE ACADEMY OF …, priority 2019, dated 2026)

Tests used:
RIPK1 (S161A) = assay: Effect of RIPK1 S161A mutation on compound activity (293T overexpression; S161A MEFs cell death with TNFα and 5z7); assay type: cell-based, murine; conditions: FIG. 5
Text: The biological test protocol used in this experiment was to test the effect of mutation of serine at position 161 of RIPK1 to alanine on the activity of compound QY-1-98. The experiment was verified by two aspects. On the one hand, after RIPK1 was overexpressed in 293T cells, RIPK1 would be activated by autophosphorylation, and the activity of small molecules to inhibit the phosphorylation of RIPK1 was detected at this time. On the other hand, in murine-derived MEFs cells with RIPK1 knockout, and RIPK1 (S161A) put back, RIPK1-dependent cell apoptosis can be induced by using TNFα and 5z7 (TAK1 inhibitor), and the effect of the compound to inhibit cell death was detected at this time.
1. 293T cells overexpressing RIPK1 experiment: RIPK1 plasmid with N-terminal 3×FLAG was constructed on PcDNA vector. 293T cells were digested, and then diluted to 8×10^5/ml. 1 ml of cells were added to each well of a 12-well cell culture plate, and the plate was placed in a cell culture incubator (37° C., 5% CO2) for 12 hours before transfection. […] After cooling, the samples were detected by western-blot after electrophoresis on SDS-PAGE gel (9%). […] The plate was placed in cell incubator (37° C., 5% CO2) for 14 h, 15 μl of Cell Titer-Glo solution was added to each well, the mixture was incubated at room temperature for 30 min, and the luminescence value was detected to measure the level of intracellular ATP. […]

RIPK1(1-330) protein = molecular target: T1, RIPK1(1-330) protein (Homo sapiens, UniProt Q13546); assay: ADP-Glo kinase activity assay at different ATP concentrations; assay type: biochemical; design: RIPK1(1-330) protein with a final concentration of 2 μL and ATP; made in house; conditions: FIG. 4
T1 sequence (Q13546 1-330): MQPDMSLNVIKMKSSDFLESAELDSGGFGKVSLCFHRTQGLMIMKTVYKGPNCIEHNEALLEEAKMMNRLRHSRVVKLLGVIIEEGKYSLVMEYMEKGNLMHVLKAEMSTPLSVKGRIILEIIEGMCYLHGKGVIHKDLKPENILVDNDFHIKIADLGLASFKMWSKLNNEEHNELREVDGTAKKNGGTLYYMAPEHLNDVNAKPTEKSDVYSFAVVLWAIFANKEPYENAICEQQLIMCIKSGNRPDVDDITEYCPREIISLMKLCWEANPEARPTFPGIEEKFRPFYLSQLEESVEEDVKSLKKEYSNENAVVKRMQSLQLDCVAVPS
Method: The adopted biological test protocol was: The effect of compound QY-1-98 on the kinase activity of RIPK1(1-330) protein was tested. The purified RIPK1(1-330) protein in vitro retained the complete kinase activity domain and maintained good kinase activity. Through the IC50 of the compounds of the present invention inhibiting RIPK1 kinase activity in the environment with different concentrations of ATP, the binding mode of the compounds to RIPK1 is obtained. Nec-1s, a known ATP-noncompetitive inhibitor of RIPK1, was used as a control.
RIPK1(1-330) protein with a final concentration of […] and ATP (1× kinase buffer) with a corresponding concentration were added to the 384-well plate, with a […]. At least 3 duplicate wells were set in each group. The reaction was carried out at 37° C. for 2H. 5 μL of ADP-Glo reagent was added, which is used to stop the kinase reaction and remove residual ATP from the reaction system. The reaction solution was placed at room temperature for 40 min 10 μL of kinase detection reagent was added, which is used to convert ADP to ATP and luciferase and luciferin were introduced to detect ATP in the system. The reaction was carried out at room temperature for 1H. Luminescence was detected using the 7500 Fast Real-Time PCR System. The IC50 of the compounds inhibiting the kinase reaction was calculated using Prism Graphpad statistical software.

SMILES: Cc1noc([C@@H]2CCCN2C(=O)C(C)(C)Oc2ccc(Cl)cc2)n1 [QY-1-98]
- inhibition of programmed cell necrosis after mutation of serine 161 of RIPK1 to alanine (RIPK1 (S161A)): can still inhibit the programmed cells necrosis
- activity of RIPK1 (1-330) protein kinase in vitro (RIPK1(1-330) protein; ADP-Glo): can inhibit the activity of RIPK1 (1-330) protein kinase in vitro
- change of IC50 with the increase of ATP concentration (RIPK1(1-330) protein; different ATP concentrations): does not change significantly
